The text below walks through data of US11857601B2, “Pharmaceutical composition for cancer treatment comprising fusion protein including IL-2 protein and CD80 protein and anticancer drug” (GI INNOVATION, INC., priority 2020, dated 2024).

Marks after values point to notes of the source that are not given here.

The test system of one assay is CT26 cells. Description: mGI-101 and Axitinib in CT26 allotransplanted tumor model.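 Note: subcutaneous CT26 syngeneic tumors in male BALB/c mice, dosing started once tumors were near 50 mm^3, drugs given orally or intraperitoneally for up to 3 weeks.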 To be noted: mGI-101 3 mg/kg IP, Axitinib 30 mg/kg PO.
For another assay, the target named is T1, IL-2Rα (Homo sapiens, UniProt P01589).
T1 construct: purchased Acro ILA-H52H9
T1 sequence (P01589 22-272): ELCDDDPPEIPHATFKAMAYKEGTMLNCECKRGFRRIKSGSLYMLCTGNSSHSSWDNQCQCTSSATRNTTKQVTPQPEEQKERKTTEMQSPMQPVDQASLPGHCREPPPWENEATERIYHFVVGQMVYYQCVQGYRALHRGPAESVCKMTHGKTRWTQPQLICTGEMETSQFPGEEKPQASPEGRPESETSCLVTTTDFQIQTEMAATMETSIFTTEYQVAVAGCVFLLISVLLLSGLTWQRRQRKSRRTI
Description: Binding to IL-2Rα (Octet, AR2G biosensor). To be noted: as compared with GI101w and Proleukin. How it is done:
The binding ability for IL-2Rα was measured using the AR2G biosensor, and the binding ability for IL-2Rβ was measured using the Ni-NTA biosensors (Nickel charged Tris-NTA, Ni-NTA Biosensors, ForteBio, 18-5101).
A ligand (IL-2Rα-His Tag, Acro, Cat: ILA-H52H9) to be attached to the AR2G biosensor was diluted with 10 mM acetate buffer (pH 5, AR2G reagent Kit, ForteBio, Cat: 18-5095) to a concentration of 5 μg/ml. The AR2G biosensor was activated with a buffer prepared by mixing 400 mM EDC and 100 mM sulfo-NHS, and then the diluted ligand was loaded on the AR2G biosensor for 300 seconds and fixed.
Thereafter, GI101, GI101w, or Proleukin (Novartis, hIL-2), at various concentrations, to be attached to the ligand was loaded thereon for 300 seconds. Then, binding thereof was measured and dissociation thereof was also measured for 300 seconds. Binding kinetics analysis was performed using Octet Data Analysis HT software ver. 10 provided by Pall Corporation. The results are illustrated in FIGS. 22 to 24.

Another assay relates to human PBMCs. Description: IFN-γ production in PHA-treated CFSE-labeled PBMCs (ELISA). Type of assay: cell-based. To be noted: PBMCs + PHA 5 μg/ml; 1, 10 or 100 nM; 6 days; compared with GI101C1, GI101C2 or IL-2. How it is done: Peripheral blood mononuclear cells (PBMCs) isolated from a human were labeled with carboxyfluorescein succinimidyl ester (CFSE) by being reacted with 1 μM CellTrace CFSE dye at 37° C. for 20 minutes. CFSE not bound to the cells was removed by being reacted for 5 minutes with a culture medium having a 5-fold volume of the staining reaction solution and then by being centrifuged at 1,300 rpm for 5 minutes. […]
The cells were analyzed by FACS, and human IFN-γ present in the culture medium was measured using an ELISA kit (Biolegend, San Diego, CA, USA, cat No. 430103).
The amount of human IFN-γ secreted into the supernatant of each sample in which the cells had been cultured was measured using a human IFN-γ ELISA kit (Biolegend, cat No. 430103). […]
After the reaction was completed, the plate was washed and secondary antibodies (detection antibodies) were added thereto. […] Finally, […] was added thereto to stop the color development reaction, and the absorbance at 450 nm was measured with Epoch Microplate Spectrophotometer (BioTek instruments, Winooski, VT, USA), and the concentration was calculated.

Description for CT26 cells: Mouse-derived colorectal cancer cells, CT26 (Mus musculus, Colon adenocarcinoma), and mouse-derived lung cancer cells, LL/2 (Mus musculus, Lung adenocarcinoma), were purchased from ATCC (USA) and used for the test. The cells to be used for the test were thawed, mixed with RPMI1640 (A1049101, Thermofisher scientific) medium containing 10% FBS (fetal bovine serum, Gibco, 10082-147), and then placed in a cell culture flask, and cultured in a 37° C., 5% CO2 incubator. The cells were washed with PBS, and then the cells were isolated using Trypsin-EDTA (15090, Gibco), and centrifugation (125×g, 5 minutes) was performed to discard the supernatant, and then the cells were suspended in a new medium to obtain the cell suspension. The viability of the cells was identified, and then a cell line was prepared by diluting in a medium to a concentration of 5.0×10^6 cells/mL.
6-week-old male BALB/cAnHsd mice or C57BL/6NHsd mice were purchased and used for the test. After the end of the acclimation period of 7 days, the cells were transplanted into healthy animals. The cell suspension (5×10^6 cells/mL) was dispensed, and filled into a disposable syringe, and transplantation of the suspension was performed by subcutaneous administration at 0.1 mL/head in the right dorsal region of the animals. General symptoms were observed once a day during the engraftment and growth period after cell line transplantation.
After the inoculation of the cell line was performed, when the tumor size at the site to which the cell line was transplanted reached about 50 mm^3, the tumor size of each group was distributed as uniformly as possible according to the ranked tumor size.
The test substance was administered orally or intraperitoneally, and administered for 3 weeks depending on the composition of the test group. In the case of oral administration, the animals were fixed with the cervical spine skin fixation method, and administered directly into the stomach using a sonde for oral administration. In the case of intraperitoneal administration, the animals were fixed with the cervical spine skin fixation method, and administered intraperitoneally using a syringe equipped with a 26 gauge needle. The administration rate was not to exceed 200 μl/min.
Syngeneic model was prepared by subcutaneously transplanting the CT26 cell line into Balb/c mice, and then the test substance was administered to evaluate the anticancer effect.

With “mGI101: fusion protein: mouse CD80, Ig hinge, Fc domain, linker, IL-2 variant (2M) (R38A, F42A); SEQ ID NO: 15”, the Tumor size with CT26 cells (Day 0, mean ± SD) is 63.53 ± 11.56 mm^3; with CT26 cells (Day 5, mean ± SD), 186.53 ± 76.61 mm^3; in the assay with CT26 cells (Day 7, mean ± SD), 249.93 ± 149.08 mm^3; with CT26 cells (Day 9, mean ± SD) it was 290.71 ± 165.17 mm^3; in the assay on CT26 cells (Day 12, mean ± SD), 352.46 ± 195.64 mm^3; with CT26 cells (Day 14, mean ± SD), 520.04 ± 307.47** mm^3. Further, the Tumor size with CT26 cells (Day 16, mean ± SD) is recorded as 962.28 ± 634.90** mm^3; in the assay on CT26 cells (Day 19, mean ± SD) it was 1395.48 ± 982.61** mm^3; in the assay with CT26 cells (Day 21, mean ± SD) it was 1987.45 ± 1320.62**** mm^3. The Tumor growth inhibition in the assay on CT26 cells (Day 5, mean ± SD) came out at 58.32 ± 24.95 %; with CT26 cells (Day 7, mean ± SD) it was 62.12 ± 38.89 %; in the assay with CT26 cells (Day 9, mean ± SD) it was 62.87 ± 34.95 %; with CT26 cells (Day 12, mean ± SD) it was 66.48 ± 29.50 %; in the assay with CT26 cells (Day 14, mean ± SD), 65.87 ± 29.12 %; in the assay with CT26 cells (Day 16, mean ± SD) it was 52.36 ± 41.33 %. The Tumor growth inhibition in the assay on CT26 cells (Day 19, mean ± SD) amounted to 41.48 ± 52.17 %; with CT26 cells (Day 21, mean ± SD), 44.57 ± 46.55 %.

In the case of “GI101: fusion protein: human CD80 fragment, Ig hinge, Fc domain, linker, IL-2 variant (2M) (R38A, F42A); SEQ ID NO: 9”, the “binding ability for the IL-2 receptor IL-2Rα” value in the assay with IL-2Rα is on record as “low binding ability”. Moreover, the IFN-γ secretion entry in the assay on human PBMCs is reported as “remarkable increase”.
